Assay results published in patent US20250034216A1, “STEREOSELECTIVE COVALENT LIGANDS FOR ONCOGENIC AND IMMUNOLOGICAL PROTEINS” (The Scripps Research Institute, priority 2021, published 2025).

Experiments:
Assay in all cases: IA-DTB cysteine engagement
Assay type in all cases: binding
YES1_C287 = molecular target: T1, YES1_C287 (Homo sapiens, UniProt P07947); details: 22Rv1 cells, relative to DMSO; for % engagement YES1_C287: 20 μM probe, 1 h; for % engagement YES1_287: 5 μM probe, 1 h (FIG. 5B)
T1 construct: endogenous in cells; host or cells: 22Rv1
T1 sequence (P07947 whole entry): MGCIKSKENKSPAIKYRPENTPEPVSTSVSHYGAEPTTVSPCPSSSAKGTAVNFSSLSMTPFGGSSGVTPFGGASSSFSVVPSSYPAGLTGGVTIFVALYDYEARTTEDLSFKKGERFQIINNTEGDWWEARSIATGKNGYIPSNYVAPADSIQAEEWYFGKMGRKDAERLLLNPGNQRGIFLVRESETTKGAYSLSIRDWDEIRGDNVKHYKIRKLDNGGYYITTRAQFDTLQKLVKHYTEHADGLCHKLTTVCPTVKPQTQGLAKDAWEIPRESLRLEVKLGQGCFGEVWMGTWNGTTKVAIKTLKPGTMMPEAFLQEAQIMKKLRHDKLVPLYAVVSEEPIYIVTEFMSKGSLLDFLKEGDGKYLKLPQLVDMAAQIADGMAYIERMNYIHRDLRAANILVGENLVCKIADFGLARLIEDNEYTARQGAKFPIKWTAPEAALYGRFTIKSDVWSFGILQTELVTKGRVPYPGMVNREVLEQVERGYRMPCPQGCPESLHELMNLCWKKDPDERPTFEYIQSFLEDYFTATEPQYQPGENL
Procedure, shortened: (§1)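 Probe-exposed cells were lysed, IA-DTB-labeled, trypsinized and streptavidin-enriched. Multiplexed TMT quantitation gave engagement ratios versus DMSO, with non-tryptic peptides excluded and intensities normalized to median summed signal.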

SRC_C280 = molecular target: T2, SRC_C280 (Homo sapiens, UniProt P12931); details: 22Rv1 cells, 20 μM probe, 1 h, relative to DMSO
T2 construct: endogenous in cells; host or cells: 22Rv1
T2 sequence (P12931 whole entry): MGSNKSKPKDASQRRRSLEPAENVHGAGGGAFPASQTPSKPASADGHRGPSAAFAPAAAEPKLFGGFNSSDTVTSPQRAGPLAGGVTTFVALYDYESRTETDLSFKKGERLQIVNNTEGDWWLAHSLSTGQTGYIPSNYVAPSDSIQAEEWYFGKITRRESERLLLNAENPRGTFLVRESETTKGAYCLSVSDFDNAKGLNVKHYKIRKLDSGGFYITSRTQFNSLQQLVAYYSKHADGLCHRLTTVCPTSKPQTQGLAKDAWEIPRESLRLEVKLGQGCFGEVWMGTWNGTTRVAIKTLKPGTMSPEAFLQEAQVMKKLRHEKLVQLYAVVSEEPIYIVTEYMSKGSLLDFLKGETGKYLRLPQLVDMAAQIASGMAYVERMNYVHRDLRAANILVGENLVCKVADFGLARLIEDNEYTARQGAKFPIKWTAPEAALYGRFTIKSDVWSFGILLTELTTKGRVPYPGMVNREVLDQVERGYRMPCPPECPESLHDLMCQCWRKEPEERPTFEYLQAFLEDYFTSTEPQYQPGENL
Procedure, shortened: as §1

LMF2_C659 = molecular target: T3, LMF2_C659 (Homo sapiens, UniProt Q9BU23); details: 22Rv1 cells, 20 μM probe, 1 h, relative to DMSO
T3 construct: endogenous in cells; host or cells: 22Rv1
T3 sequence (Q9BU23 1-707): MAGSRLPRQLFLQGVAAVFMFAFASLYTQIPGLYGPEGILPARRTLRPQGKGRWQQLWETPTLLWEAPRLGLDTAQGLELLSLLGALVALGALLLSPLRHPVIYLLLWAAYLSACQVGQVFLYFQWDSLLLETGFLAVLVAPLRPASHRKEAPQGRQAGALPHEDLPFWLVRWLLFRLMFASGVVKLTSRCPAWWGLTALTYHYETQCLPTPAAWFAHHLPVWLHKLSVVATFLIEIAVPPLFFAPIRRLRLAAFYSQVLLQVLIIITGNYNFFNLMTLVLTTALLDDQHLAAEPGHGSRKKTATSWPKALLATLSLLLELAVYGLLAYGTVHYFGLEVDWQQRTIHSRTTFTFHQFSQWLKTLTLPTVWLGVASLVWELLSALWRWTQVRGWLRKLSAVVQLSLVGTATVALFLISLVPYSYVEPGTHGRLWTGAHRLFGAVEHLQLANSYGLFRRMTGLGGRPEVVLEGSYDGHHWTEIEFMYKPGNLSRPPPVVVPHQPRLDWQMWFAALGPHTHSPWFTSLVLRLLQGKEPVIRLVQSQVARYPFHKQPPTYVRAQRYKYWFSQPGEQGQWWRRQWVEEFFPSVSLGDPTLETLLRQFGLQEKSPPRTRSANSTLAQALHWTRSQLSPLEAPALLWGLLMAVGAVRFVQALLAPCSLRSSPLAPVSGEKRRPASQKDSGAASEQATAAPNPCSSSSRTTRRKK
Procedure, shortened: as §1

UNC13A_C999 = molecular target: T4, UNC13A_C999 (Homo sapiens, UniProt Q9UPW8); details: 22Rv1 cells, 20 μM probe, 1 h, relative to DMSO
T4 construct: endogenous in cells; host or cells: 22Rv1
Procedure, shortened: as §1

SMILES | % engagement YES1_C287 (YES1_C287) [%] | % engagement SRC_C280 (SRC_C280) [%] | % engagement LMF2_C659 (LMF2_C659) [%] | % engagement UNC13A_C999 (UNC13A_C999) [%] | % engagement YES1_287 (YES1_C287) [%]
C=CC(=O)N1C[C@@H](c2ccc(Br)cc2)[C@H]1C(=O)Nc1cccc2cccnc12 [MY-1A, (2S,3R)-1-acryloyl-3-(4-bromophenyl)-N-(quinolin-8-yl)azetidine-2-carboxamide] | 5.75 | 17.75 | 66 | 54.5 | –
CC#CC(=O)N1C[C@H](c2ccc(Br)cc2)[C@@H]1C(=O)Nc1cccc2cccnc12 [MY-45B, (2R,3S)-3-(4-bromophenyl)-1-(but-2-ynoyl)-N-(quinolin-8-yl)azetidine-2-carboxamide] | – | – | – | – | 5.50

Second part, the compound after the results:

% engagement YES1_C287 (YES1_C287) [%] | % engagement SRC_C280 (SRC_C280) [%] | % engagement LMF2_C659 (LMF2_C659) [%] | % engagement UNC13A_C999 (UNC13A_C999) [%] | % engagement YES1_287 (YES1_C287) [%] | SMILES
94.5 | 92.25 | 65.75 | 100 | 67.13 | C=CC(=O)N1C[C@H](c2ccc(Br)cc2)[C@@H]1C(=O)Nc1cccc2cccnc12 [MY-1B, (2R,3S)-1-acryloyl-3-(4-bromophenyl)-N-(quinolin-8-yl)azetidine-2-carboxamide]
0.5 | 2 | 44.75 | 100 | – | C=CC(=O)N1C[C@H](c2ccc(Br)cc2)[C@H]1C(=O)Nc1cccc2cccnc12 [MY-3A, (2S,3S)-1-acryloyl-3-(4-bromophenyl)-N-(quinolin-8-yl)azetidine-2-carboxamide]
42.25 | 64 | 69.25 | 23.5 | – | C=CC(=O)N1C[C@H](c2ccc(Br)cc2)[C@H]1C(=O)Nc1cccc2cccnc12 [MY-3B, (2S,3S)-1-acryloyl-3-(4-bromophenyl)-N-(quinolin-8-yl)azetidine-2-carboxamide]
